The NIST ThermoML archive (doi:10.1021/je900757k)

Assay: isobaric coefficient of expansion
Details: Liquid, DSC

c1ccccc1 [benzene]
isobaric coefficient of expansion
Details	298.15 K	308.15 K	318.15 K	328.15 K	338.15 K	348.15 K
5000 kPa	0.0012 1/K	0.00121 1/K	0.00123 1/K	0.00126 1/K	0.00129 1/K	0.00132 1/K
10000 kPa	0.00116 1/K	0.00118 1/K	0.00119 1/K	0.00121 1/K	0.00123 1/K	0.00125 1/K
15000 kPa	0.00114 1/K	0.00115 1/K	0.00115 1/K	0.00117 1/K	0.00118 1/K	0.0012 1/K
20000 kPa	0.00111 1/K	0.00112 1/K	0.00113 1/K	0.00113 1/K	0.00114 1/K	0.00115 1/K
25000 kPa	0.00108 1/K	0.00108 1/K	0.00109 1/K	0.0011 1/K	0.0011 1/K	0.00111 1/K
30000 kPa	0.00105 1/K	0.00106 1/K	0.00106 1/K	0.00106 1/K	0.00107 1/K	0.00108 1/K
35000 kPa	0.00103 1/K	0.00103 1/K	0.00104 1/K	0.00104 1/K	0.00104 1/K	0.00104 1/K
40000 kPa	0.00101 1/K	0.00101 1/K	0.00101 1/K	0.00101 1/K	0.00101 1/K	0.00102 1/K
45000 kPa	0.000988 1/K	0.00099 1/K	0.000989 1/K	0.000989 1/K	0.000985 1/K	0.000986 1/K
50000 kPa	0.000971 1/K	0.000972 1/K	0.00097 1/K	0.000966 1/K	0.000966 1/K	0.000963 1/K
55000 kPa	0.000954 1/K	0.000955 1/K	0.000951 1/K	0.000948 1/K	0.000945 1/K	0.000941 1/K

CCCCCCCCCC [decane]
isobaric coefficient of expansion
Details	278.15 K	288.15 K	298.15 K	308.15 K	318.15 K	328.15 K	338.15 K	348.15 K
5000 kPa	0.000969 1/K	0.000985 1/K	0.001 1/K	0.00102 1/K	0.00103 1/K	0.00105 1/K	0.00107 1/K	0.00108 1/K
10000 kPa	0.000945 1/K	0.000958 1/K	0.000975 1/K	0.000988 1/K	0.001 1/K	0.00101 1/K	0.00103 1/K	0.00103 1/K
15000 kPa	0.000922 1/K	0.000933 1/K	0.000949 1/K	0.000956 1/K	0.00097 1/K	0.000977 1/K	0.000987 1/K	0.000992 1/K
20000 kPa	0.000899 1/K	0.000907 1/K	0.000918 1/K	0.000928 1/K	0.000935 1/K	0.000942 1/K	0.00095 1/K	0.000956 1/K
25000 kPa	0.000878 1/K	0.000886 1/K	0.000896 1/K	0.000902 1/K	0.000907 1/K	0.000915 1/K	0.000919 1/K	0.000922 1/K
30000 kPa	0.000859 1/K	0.000868 1/K	0.000871 1/K	0.000878 1/K	0.000883 1/K	0.000885 1/K	0.000891 1/K	0.000893 1/K
35000 kPa	0.000843 1/K	0.000846 1/K	0.000849 1/K	0.000856 1/K	0.000858 1/K	0.000862 1/K	0.000862 1/K	0.000865 1/K
40000 kPa	0.000817 1/K	0.000823 1/K	0.000829 1/K	0.000834 1/K	0.000833 1/K	0.000833 1/K	0.000836 1/K	0.000835 1/K
45000 kPa	0.000807 1/K	0.000812 1/K	0.000812 1/K	0.000812 1/K	0.000815 1/K	0.000815 1/K	0.000816 1/K	0.000816 1/K
50000 kPa	0.000793 1/K	0.000797 1/K	0.000794 1/K	0.000796 1/K	0.000802 1/K	0.000797 1/K	0.000796 1/K	0.000795 1/K
55000 kPa	0.000784 1/K	0.00078 1/K	0.00078 1/K	0.000782 1/K	0.000781 1/K	0.000781 1/K	0.000779 1/K	0.000778 1/K
